According to patent US10772858B2, “Benzhydrol derivatives for the management of conditions related to hypoxia inducible factors” (GEORGIA STATE UNIVERSITY RESEARCH FOUNDATION, priority 2015, dated 2020):

Tests used:
[1] = target: mitochondrial Complex I (NADH:ubiquinone oxidoreductase); test: MitoCheck Complex I activity assay (Cayman Chemicals #700930); type: biochemical
Excerpt: Complex I (NADH:ubiquinone oxidoreductase or NADH dehydrogenase (ubiquinone)) is a complex of enzymes of the respiratory chains that catalyzes the transfer of electrons from NADH to coenzyme Q10 (CoQ10) located in the inner mitochondrial membrane. […] Cancer Medicine, 2013, 2(5): 611-624. […] Interference with mitochondrial function to reduce hypoxia-induced HIF-1 activity in tumors is indicated as a therapeutic approach to overcome chemo- and radiotherapy resistance of hypoxic tumors. Helbig et al. report BAY 87-2243 improves local tumor control after fractionated irradiation in a schedule-dependent manner in head and neck human xenografts. Radiation Oncology 2014, 9:207. Santidrian et al. report mitochondrial complex I activity and NAD+/NADH balance regulate breast cancer progression. J Clin Invest, 2013, 123(3):1068-81. See also Ellinghaus et al., Cancer Med, 2013, 2(5):611-624. Chang et al., Clin Cancer Res, 2015, 21(2):335-46; Fulda et al., Antioxid Redox Signal, 2011, 15:2937-2949; Wenner, J Cell Physiol, 2012, 227:450-456; Fulda et al., Nat Rev Drug Discov, 2010, 9:447-464.
It has been discovered that certain HIF inhibitors disclosed herein are also mitochondrial inhibitors. […] KCN1 induced acidification of media may be due to the consequence of its mitochondrial inhibiting activity. […]

LN229 cells = test: Toxicity to LN229 cells in the presence of galactose; type: cell-based, human
Excerpt: To be metabolized, galactose has to be converted into glucose in an energy consuming process that cannot be balanced by glycolytic metabolism. […] KCN1 is toxic to LN229 cells in the presence of galactose. […] Thus, in certain embodiments, the disclosure contemplates administering compounds disclosed herein in combination with a restricted or low glucose diet optionally in combination with galactose.

cell culture media = test: Acidification of cell culture media (lactate production); type: cell-based; conditions: due to increased lactate production
Excerpt: It has been discovered that certain HIF inhibitors disclosed herein are also mitochondrial inhibitors. […] KCN1 induced acidification of media may be due to the consequence of its mitochondrial inhibiting activity. Inhibiting the mitochondrial complex I interferes with the normal functions of the electron transport chain. This in effect can damage DNA and specific components of the mitochondria which leads to cell death through the generation of reactive oxygen species.

HIF-1α = conditions: cited from earlier work
H460 xenograft = H460 xenograft model; cited from earlier work
mitochondrial complex I = conditions: cited from earlier work

| SMILES | IC50 [1] [µM] | toxicity to LN229 cells (LN229 cells) | acidification of cell culture media (cell culture media) | HIF-1α inhibition (HIF-1α) | antitumor activity in vivo (H460 xenograft) | mitochondrial complex I activity inhibition (mitochondrial complex I) |
| --- | --- | --- | --- | --- | --- | --- |
| COc1ccc(S(=O)(=O)N(Cc2ccc3c(c2)C=CC(C)(C)O3)c2ccccc2)cc1OC [KCN1] | ~15 | toxic | strongly acidifies cell culture media | – | – | – |
| Cc1cc(-c2nc(-c3ccc(OC(F)(F)F)cc3)no2)nn1Cc1ccnc(N2CCN(C3CC3)CC2)c1 [BAY 87-2243] | – | – | – | inhibits HIF-1α | Antitumor activity of BAY 87-2243 in vivo was demonstrated | inhibits mitochondrial complex I activity |
